Laboratory results reported in PMC9939292, “Cefoselis enhances breast cancer chemosensitivity by directly targeting GRP78/LRP5 signalling of cancer stem cells” (Clinical and Translational Medicine, 2023).

Biological target: T1, recombinant GRP78 protein (Homo sapiens, UniProt P11021)
T1 construct: gene HSPA5; recombinant GRP78
Experiment: isothermal titration calorimetry; also SPR small molecule microarray
Assay type: binding
Description: isothermal titration calorimetry; also SPR small molecule microarray on recombinant GRP78 protein | measure the binding affinity of cefoselis with the recombinant GRP78 protein

T1 sequence (P11021 19-654): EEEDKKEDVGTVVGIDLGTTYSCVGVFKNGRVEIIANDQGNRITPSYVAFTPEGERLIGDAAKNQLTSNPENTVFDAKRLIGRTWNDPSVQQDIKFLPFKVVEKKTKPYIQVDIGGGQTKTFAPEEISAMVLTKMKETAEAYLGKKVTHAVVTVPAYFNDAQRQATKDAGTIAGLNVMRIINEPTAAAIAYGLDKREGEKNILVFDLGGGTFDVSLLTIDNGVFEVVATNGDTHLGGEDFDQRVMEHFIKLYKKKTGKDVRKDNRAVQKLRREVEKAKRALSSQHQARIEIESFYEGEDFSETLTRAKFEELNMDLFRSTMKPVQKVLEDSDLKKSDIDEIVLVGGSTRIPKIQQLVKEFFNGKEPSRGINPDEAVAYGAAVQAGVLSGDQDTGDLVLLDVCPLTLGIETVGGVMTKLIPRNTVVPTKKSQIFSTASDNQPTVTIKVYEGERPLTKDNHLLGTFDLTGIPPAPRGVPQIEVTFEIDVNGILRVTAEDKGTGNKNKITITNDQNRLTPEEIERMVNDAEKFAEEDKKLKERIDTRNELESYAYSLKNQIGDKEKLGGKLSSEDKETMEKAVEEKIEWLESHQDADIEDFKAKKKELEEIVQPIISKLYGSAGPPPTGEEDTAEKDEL

CO/N=C(\C(=O)N[C@@H]1C(=O)N2C(C(=O)[O-])=C(C[n+]3ccc(N)n3CCO)CS[C@H]12)c1csc(N)n1 [cefoselis]
Kd: 463 nM
